According to patent US11717508B2, “Compounds, compositions, and methods for inhibiting bacterial growth” (priority 2016, dated 2023):

Test system: DosRST regulon
Format: cell-based
Conditions: 40 μM, 6 days, >2-fold, p<0.05

## C[C@@H]1CC(C)(C)C[C@]2(C1)NC(=O)NC2=O (racemic) [HC102A, 7,7,9-trimethyl-1,3-diazaspiro[4.5]decane-2,4-dione]
  genes downregulated by compound that are also downregulated in the CDC1551(ΔdosR) mutant: 48 genes
